From article PMC11005446 (European journal of pharmaceutical sciences : official …, 2021)
Read-outs that look alike come from different tables or passages of the source.

Columns and labels:
OATP1B1 and OATP1B3 [1] = settings: for Co-Incubation R / Pre+Co-Incubation R: Hepatocytes, substrate rosuvastatin, R-value model; for accumulation of [3H]rosuvastatin after inhibitor pre-incubation: washing
OATP1B1 [2] = settings: OATP1B1-expressing cell line, substrate E217βG; ref Pahwa et al., 2017; cited from earlier work
OATP1B3 [3] = target: T1, OATP1B3 (Homo sapiens, UniProt Q9NPD5); settings: OATP1B3-expressing cell line, substrate E217βG; ref Pahwa et al., 2017; cited from earlier work
T1 sequence (Q9NPD5 1-702): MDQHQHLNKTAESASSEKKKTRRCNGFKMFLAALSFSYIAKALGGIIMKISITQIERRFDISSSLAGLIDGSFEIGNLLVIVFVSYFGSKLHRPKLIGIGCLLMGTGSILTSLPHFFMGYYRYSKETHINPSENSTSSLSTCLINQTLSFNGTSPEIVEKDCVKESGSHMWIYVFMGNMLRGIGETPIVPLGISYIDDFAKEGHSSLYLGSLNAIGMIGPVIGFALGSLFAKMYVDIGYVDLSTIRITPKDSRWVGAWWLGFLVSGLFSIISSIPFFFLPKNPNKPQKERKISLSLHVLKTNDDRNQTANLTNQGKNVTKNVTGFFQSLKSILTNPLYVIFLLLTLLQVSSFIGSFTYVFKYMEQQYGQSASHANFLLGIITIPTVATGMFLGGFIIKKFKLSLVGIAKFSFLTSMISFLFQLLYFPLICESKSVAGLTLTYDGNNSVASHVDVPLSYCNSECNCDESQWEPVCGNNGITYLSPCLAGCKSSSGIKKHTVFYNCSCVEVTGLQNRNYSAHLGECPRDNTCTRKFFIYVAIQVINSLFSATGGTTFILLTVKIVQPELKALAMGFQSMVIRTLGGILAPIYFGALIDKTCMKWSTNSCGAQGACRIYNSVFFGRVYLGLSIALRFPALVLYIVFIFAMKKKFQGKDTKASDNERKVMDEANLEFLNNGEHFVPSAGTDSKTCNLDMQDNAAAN

OATP1B1 and OATP1B3 [4] = settings: both cell lines and human SCH; vs US FDA cut-off 1.1
OATP1B1 [5] = settings: read-out: Michaelis constant (Km) for OATP1B1, cited from earlier work
[6] = system: cynomolgus monkey hepatocytes; settings: ref Ufuk et al., 2018; cited from earlier work
OATP1B3 [7] = settings: cited from earlier work
[8] = Estimated maximum total plasma concentration at the inlet to the liver; settings: calculated by Eq. 3 from literature parameters (Supplement Table S2)
OATP1B1 and OATP1B3 [9] = settings: transporter-expressing cell lines; ref Farasyn et al., 2019; cited from earlier work
OATP1B1 and OATP1B3 [10] = assay: Inhibition of [3H]pitavastatin accumulation in human SCH; assay type: in vitro ADME; settings: for Co-Incubation R / Pre+Co-Incubation R: Hepatocytes, substrate pitavastatin, R-value model; for accumulation of [3H]pitavastatin after inhibitor pre-incubation: human SCH, washing
OATP1B3 [11] = target: T1, OATP1B3; assay: Inhibition of [3H]CCK-8 accumulation in human SCH; assay type: in vitro ADME; settings: mean ± SE
[12] = system: OATP1B1, NTCP, and OATP1B3; settings: ref Ho et al., 2006; Kitamura et al., 2008; cited from earlier work
human hepatocytes = settings: suspension of human hepatocytes, with vs without rifampicin; ref Bi et al., 2013; cited from earlier work
OATP1B1 [13] = settings: OATP1B1-expressing cell line, substrate rosuvastatin; ref Farasyn et al., 2019; cited from earlier work
[14] = human hepatocytes, inhibitor 100 μM co-incubation, mean ± SE

Compound: Cc1nc(Nc2ncc(C(=O)Nc3c(C)cccc3Cl)s2)cc(N2CCN(CCO)CC2)n1 [Dasatinib, dasatinib]
- Co-Incubation R (OATP1B1 and OATP1B3 [1]): 1.09 (1.05–1.14)
- Pre+Co-Incubation R (OATP1B1 and OATP1B3 [1]): 1.27 (1.15–1.51)
- Co-Incubation R (OATP1B1 [2]): 1.07 (1.04–1.09)
- Pre+Co-Incubation R (OATP1B1 [2]): 1.13 (1.09–1.20)
- Co-Incubation R (OATP1B3 [3]): 1.05 (1.05–1.09)
- Pre+Co-Incubation R (OATP1B3 [3]): 1.11 (1.09–1.22)
- R-values under pre+co-incubation conditions (OATP1B1 and OATP1B3 [4]): > 1.1

Compound: O=C(O)C[C@H](O)C[C@H](O)/C=C/c1c(C2CC2)nc2ccccc2c1-c1ccc(F)cc1 [pitavastatin]
- Km (OATP1B1 [5]; ref Hirano et al., 2004): 3 µM
- uptake clearance attributed to passive diffusion [6]: 20%
- Km (OATP1B3 [7]; read-out: Michaelis constant (Km) for OATP1B3, ref Hirano et al., 2004): 3 µM

Compound: CO[C@H]1C[C@@H]2CC[C@@H](C)[C@@](O)(O2)C(=O)C(=O)N2CCCC[C@H]2C(=O)O[C@H]([C@H](C)C[C@@H]2CC[C@@H](OCCO)[C@H](OC)C2)CC(=O)[C@H](C)/C=C(\C)[C@@H](O)[C@@H](OC)C(=O)[C@H](C)C[C@H](C)/C=C/C=C/C=C/1C [EVR, everolimus]
- Pre+Co-Incubation R (OATP1B1 and OATP1B3 [1]): 1.07 (1.05–1.11)
- accumulation of [3H]rosuvastatin after inhibitor pre-incubation (OATP1B1 and OATP1B3 [1]; human SCH, 1 h pre-incubation at 0.2 μM, model estimate ± SE): 0.8 ± 0.07 fold of CTL
- accumulation of [3H]rosuvastatin after inhibitor pre-incubation (OATP1B1 and OATP1B3 [1]; human SCH, 1 h pre-incubation at 0.8 μM, model estimate ± SE): 0.59 ± 0.07 fold of CTL
- maximum total plasma concentration at the inlet to the liver (Iin,max,plasma) [8]: 0.17 µM
- R values from cell lines, pre+co-incubation (OATP1B1 and OATP1B3 [9]): 1.23
- Co-Incubation R (OATP1B1 and OATP1B3 [10]): 1.01 (1.01–1.02)
- Pre+Co-Incubation R (OATP1B1 and OATP1B3 [10]): 1.09 (1.08–1.13)
- accumulation of [3H]pitavastatin after inhibitor pre-incubation (OATP1B1 and OATP1B3 [10]; 1 h pre-incubation at 0.5 μM, model estimate ± SE): 0.78±0.06 fold vs. CTL

Compound: O=C1OC(c2ccc(O)c(S(=O)(=O)O)c2)(c2ccc(O)c(S(=O)(=O)O)c2)c2c(Br)c(Br)c(Br)c(Br)c21 [BSP, bromosulfophthalein]
- accumulation of [3H]rosuvastatin, co-incubation (OATP1B1 and OATP1B3 [1]; [14]): 0.20 ± 0.09 fold of control
- inhibition of rosuvastatin uptake, co-incubation (OATP1B1 and OATP1B3 [1]; human hepatocytes, inhibitor 100 μM co-incubation, range 77–92%): ~ 84%
- accumulation of [3H]CCK-8, co-incubation (OATP1B3 [11]; human hepatocytes, inhibitor 100 μM co-incubation): 0.10 ± 0.01 fold of control
- accumulation of [3H]pitavastatin, co-incubation (OATP1B1 and OATP1B3 [10]; [14]): 0.44 ± 0.05 fold of control

Compound: CO[C@H]1/C=C/O[C@@]2(C)Oc3c(C)c(O)c4c(O)c(c(/C=N/N5CCN(C)CC5)c(O)c4c3C2=O)NC(=O)/C(C)=C\C=C\[C@H](C)[C@H](O)[C@@H](C)[C@@H](O)[C@@H](C)[C@H](OC(C)=O)[C@@H]1C [rifampicin]
- accumulation of [3H]rosuvastatin, pre+co-incubation (OATP1B1 and OATP1B3 [1]; human SCH, inhibitor 50 μM, 1 h pre-incubation then co-incubation, mean ± SE): 0.45 ± 0.15 fold of control
- accumulation of [3H]CCK-8, pre+co-incubation (OATP1B3 [11]; human SCH, inhibitor 50 μM, 1 h pre-incubation then co-incubation): 0.18 ±0.12 fold of control

Compound: CC(C)c1nc(N(C)S(C)(=O)=O)nc(-c2ccc(F)cc2)c1/C=C/[C@@H](O)C[C@@H](O)CC(=O)O [rosuvastatin]
- Km (OATP1B1 [5]; ref Kitamura et al., 2008): 0.8 µM
- contribution of NTCP to active uptake into human hepatocytes [12]: ~35%
- contribution of OATP1B1 to active uptake into human hepatocytes [12]: ~ 50%
- contribution of OATP1B3 to active uptake into human hepatocytes [12]: ~15%
- uptake clearance attributed to passive diffusion [6]: 4%
- Km (OATP1B3 [7]; read-out: Michaelis constant (Km) for OATP1B3, ref Kitamura et al., 2008): 14.2 µM
- share of total hepatic uptake clearance due to active transport processes (human hepatocytes): approximately 90%

Compound: CO[C@H]1C[C@@H]2CC[C@@H](C)[C@@](O)(O2)C(=O)C(=O)N2CCCC[C@H]2C(=O)O[C@H]([C@H](C)C[C@@H]2CC[C@@H](O)[C@H](OC)C2)CC(=O)[C@H](C)/C=C(\C)[C@@H](O)[C@@H](OC)C(=O)[C@H](C)C[C@H](C)/C=C/C=C/C=C/1C [SIR, sirolimus]
- Co-Incubation R (OATP1B1 and OATP1B3 [1]): 1.00 (1.00–1.00)
- Pre+Co-Incubation R (OATP1B1 and OATP1B3 [1]): 1.00 (1.00–1.00)
- accumulation of [3H]rosuvastatin after inhibitor pre-incubation (OATP1B1 and OATP1B3 [1]; human SCH, 1 h pre-incubation at 0.6 μM): 0.63 ± 0.08 fold vs. CTL
- maximum total plasma concentration at the inlet to the liver (Iin,max,plasma) [8]: 0.03 µM
- Co-Incubation R (OATP1B1 [13]): 1.00 (1.00–1.03)
- Co-Incubation R (OATP1B1 and OATP1B3 [10]): 1.00 (1.00–1.01)
- Pre+Co-Incubation R (OATP1B1 and OATP1B3 [10]): 1.00 (1.00–1.01)
- accumulation of [3H]pitavastatin after inhibitor pre-incubation (OATP1B1 and OATP1B3 [10]; 1 h pre-incubation at 0.6 μM): did not affect
- R-values under pre+co-incubation conditions (OATP1B1 and OATP1B3 [4]): < 1.1

Compound: cholecystokinin 8 [CCK-8]
- Km (OATP1B3 [7]): 3.8 µM
